# Columns and labels:
# [1] = test system: Alternaria brassicae; assay: Efficacy against Alternaria brassicae (in vitro), growth on PDA medium; format: cell-based; conditions: radial growth after 14 days
# Method: The growth of Alternaria brassicae was followed on PDA medium containing the compounds alone or in mixtures. The PDA medium is prepared by mixing 39 grams of PDA (Merck) in 1 litter of demineralised water. The medium is sterilized by autoclave 15 minutes at 121° C. The compounds are dissolved in acetone and added to the medium before pouring it in Petri dishes. After medium drying, the fungus is inoculated on the medium and allowed to growth at 19° C. The percentage of efficacy is noted after 14 days of growth (measurement of the radial growth) of the fungus in comparison with a control. […]
# [2] = test system: Sphaerotheca fuliginea; assay: Efficacy against Sphaerotheca fuliginea on gherkin plants (preventive spray); format: in vivo; conditions: Podosphaera fuliginea, 504 h, grading 21 days after contamination
# Method: (§1) The active ingredients tested are prepared by potter homogenisation in a mixture of acetone/tween/water. This suspension is then diluted with water to obtain the desired active material concentration.
# (§2) Gherkin plants (Vert petit de Paris variety) in starter cups, sown on a 50/50 peat soil-pozzolana substrate and grown at 20° C./23° C., are treated at the 2-leaves stage by spraying with the aqueous suspension described above. Plants, used as controls, are treated with an aqueous solution not containing the active material.
# After 24 hours, the plants are contaminated by spraying them with an aqueous suspension of Sphaerotheca fuliginea spores (100 000 spores per ml). The spores are collected from a contaminated plants. The contaminated gherkin plants are incubated at about 20° C./25° C. and at 60/70% relative humidity.
# Grading (% of efficacy) is carried out 21 days after the contamination, in comparison with the control plants.
# [3] = test system: Botrytis cinerea; assay: Efficacy against Botrytis cinerea on gherkin plants (preventive spray); format: in vivo; conditions: grading 5 to 7 days after contamination
# Method: as §1
# as §2, with “(Petit vert” for “(Vert petit”, “18-20°” for “20° C./23°”, “cotyledon Z11” for “2-leaves”
# After 24 hours, the plants are contaminated by depositing drops of an aqueous suspension of Botrytis cinerea spores (150,000 spores per ml) on upper surface of the leaves. The spores are collected from a 15-day-old culture and are suspended in a nutrient solution composed of: • 20 g/L of gelatine • 50 g/L of cane sugar • 2 g/L of NH4NO3 • 1 g/L of KH2PO4
# The contaminated gherkin plants are settled for 5/7 days in a climatic room at 15-11° C. (day/night) and at 80% relative humidity. Grading is carried out 5 to 7 days after contamination, in comparison with the control plants.
# as §2, with “(Petit vert” for “(Vert petit”, “18-20°” for “20° C./23°”, “cotyledon Z 11” for “2-leaves”
# (§3) The formulated compounds are diluted with water to obtain the desired active material concentration.
# [4] = test system: Erysiphe graminis f. sp. tritici; assay: Efficacy against Erysiphe graminis f. sp. tritici on wheat plants (preventive spray); format: in vivo; conditions: grading 7 to 14 days after contamination
# Method: as §1
# (§4) Wheat plants (Audace variety) in starter cups, sown on 50/50 peat soil-pozzolana substrate and grown at 12° C., are treated at the 1-leaf stage (10 cm tall) by spraying with the aqueous suspension described above.
# (§5) Plants, used as controls, are treated with an aqueous solution not containing the active material.
# After 24 hours, the plants are contaminated by dusting them with Erysiphe graminis f. sp. tritici spores, the dusting being carried out using diseased plants.
# Grading is carried out 7 to 14 days after the contamination, in comparison with the control plants.
# as §3
# as §4, with “above. Plants, used as controls, are treated with an aqueous solution not containing the active material.” for “above.”
# [5] = test system: Alternaria brassicae; assay: Efficacy against Alternaria brassicae on radish plants (preventive spray); format: in vivo; conditions: Example 13, dose 111 ppm, grading 6 to 7 days after contamination
# Method: as §3
# Radish plants (Pernot variety) in starter cups, sown on a 50/50 peat soil-pozzolana substrate and grown at 18-20° C., are treated at the cotyledon stage by spraying with the aqueous suspension described above.
# as §5
# After 24 hours, the plants are contaminated by spraying them with an aqueous suspension of Alternaria brassicae spores (40,000 spores per cm^3). The spores are collected from a 12-13-day-old culture.
# The contaminated radish plants are incubated for 6-7 days at about 18° C., under a humid atmosphere.
# Grading is carried out 6 to 7 days after the contamination, in comparison with the control plants.
# [6] = test system: Pyrenophora teres; assay: Efficacy against Pyrenophora teres on barley plants (preventive spray); format: in vivo; conditions: 288 h, grading 12 days after contamination
# Method: as §1
# as §2, with “Barley” for “Gherkin”, “(Express” for “(Vert petit de Paris”, “12°” for “20° C./23°”, “1-leaf” for “2-leaves”, “stage (10 cm tall)” for “stage”
# After 24 hours, the plants are contaminated by spraying them with an aqueous suspension of Pyrenophora teres spores (12 000 spores per ml). The spores are collected from a 12-day-old culture. The contaminated barley plants are incubated for 24 hours at about 20° C. and at 100% relative humidity, and then for 12 days at 80% relative humidity.
# Grading (% of efficacy) is carried out 12 days after the contamination, in comparison with the control plants.
smiles,measurement,setting,value
"CO/C=C(/C(=O)OC)c1ccccc1Oc1cc(Oc2ccccc2C#N)ncn1 [Azoxystrobin, azoxystrobin]",% Efficacy,"[1]; Example 3, dose 0.025 ppm",38%
same,% Efficacy,"[1]; Example 3, dose 0.05 ppm",41%
same,% Efficacy,"[1]; Example 3, dose 0.1 ppm",47%
same,% Efficacy,"[1]; Example 3, dose 0.25 ppm",56%
same,% Efficacy,"[1]; Example 3, dose 0.5 ppm",47%
same,% Efficacy,"[1]; Example 3, dose 1 ppm",48%
same,% Efficacy,"[1]; Example 3, dose 2.5 ppm",49%
"O=C(Nc1ccccc1-c1ccc(Cl)cc1)c1cccnc1Cl [Boscalid, boscalid, reference compound]",Emax at 4 ppm,"[2]; Example 11, dose 4 ppm",0%
same,Emax at 8 ppm,"[2]; Example 11, dose 8 ppm",10%
same,Emax at 15 ppm,"[2]; Example 11, dose 15 ppm",45%
"CNC(=O)C(=NOC)c1ccccc1Oc1ncnc(Oc2cccc(Cl)c2C)c1F [Compound A, 2-{2-[6-(3-Chloro-2-methylphenoxy)-5-fluoro-pyrimidin-4-yloxy]-phenyl}2-methoxyimino-N-methylacetamide]",Emax at 37 ppm,"[3]; Botrytis cinerea, Example 8, dose 37 ppm",0%
same,Emax at 111 ppm,"[3]; Botrytis cinerea, Example 8, dose 111 ppm",0%
same,Emax at 333 ppm,"[3]; Botrytis cinerea, Example 8, dose 333 ppm",0%
"Cc1nn(C)c(F)c1C(=O)Nc1ccccc1C(C)CC(C)C (centres unmarked) [Compound B, N-[2-(1,3-dimethyl-butyl)-phenyl]-5-fluoro-1,3-dimethyl-1H-pyrazole-4-carboxamide]",Emax at 4 ppm,"[3]; Botrytis cinerea, Example 10, dose 4 ppm",32%
"Cn1cc(C(=O)Nc2ccc(F)cc2-c2ccc(Cl)c(Cl)c2)c(C(F)F)n1 [Compound C, N-(3′,4′-dichloro-5-fluorobiphenyl-2-yl)-3-(difluoro-methyl)-1-methyl-1H-pyrazole-4-carboxamide]",Emax at 31.2 ppm,"[2]; Example 12, dose 31.2 ppm",0%
same,Emax at 62.5 ppm,"[2]; Example 12, dose 62.5 ppm",0%
"CC(C)CC(C)c1sccc1NC(=O)c1cn(C)nc1C(F)(F)F (centres unmarked) [Compound D, N-[2-(1,3-dimethylbutyl)-thiophen-3-yl]1-methyl-3-(trifluoromethyl)-1H-pyrazole-4-carboxamide]",Emax at 250 ppm,"[3]; Botrytis cinerea, Example 14, dose 250 ppm, formulated compounds",60%
"CNC(=O)/C(=N/OC)c1ccccc1COc1cc(C)ccc1C [Dimoxystrobin, dimoxystrobin, reference compound]",% Efficacy,"[4]; Example 9, dose 62.5 g/ha, formulated compounds",0%
"CSC1=N[C@@](C)(c2ccccc2)C(=O)N1Nc1ccccc1 [Fenamidone, fenamidone, reference compound]",Emax at 111 ppm,[5],55%
"CO/N=C(/C1=NOCCO1)c1ccccc1Oc1ncnc(Oc2ccccc2Cl)c1F [Fluoxastrobin, fluoxastrobin, reference compound]",Emax at 15 ppm,"[4]; Blumeria graminis, Example 4, dose 15 ppm",20%
"CO/N=C(/C(=O)OC)c1ccccc1COc1ccccc1C [Kresoxim-methyl, kresoxim-methyl, reference compound]",Emax at 37 ppm,"[3]; Botrytis cinerea, Example 5, dose 37 ppm",0%
same,Emax at 111 ppm,"[3]; Botrytis cinerea, Example 5, dose 111 ppm",0%
same,Emax at 333 ppm,"[3]; Botrytis cinerea, Example 5, dose 333 ppm",0%
"CO/C=C(/C(=O)OC)c1ccccc1COc1cccc(C(F)(F)F)n1 [Picoxystrobin, picoxystrobin, reference compound]",% Efficacy,"[3]; Example 6, dose 37 ppm",0%
same,% Efficacy,"[3]; Example 6, dose 111 ppm",35%
same,% Efficacy,"[3]; Example 6, dose 333 ppm",40%
"COC(=O)N(OC)c1ccccc1COc1ccn(-c2ccc(Cl)cc2)n1 [Pyraclostrobin, pyraclostrobin, reference compound]",Emax at 37 ppm,"[3]; Botrytis cinerea, Example 7, dose 37 ppm",0%
same,Emax at 111 ppm,"[3]; Botrytis cinerea, Example 7, dose 111 ppm",0%
same,Emax at 333 ppm,"[3]; Botrytis cinerea, Example 7, dose 333 ppm",0%
"CON=C(C(=O)OC)c1ccccc1CON=C(C)c1cccc(C(F)(F)F)c1 [Trifloxystrobin, trifloxystrobin]",Emax at 0.025 ppm,"[1]; Alternaria brassicae, 336 h, Example 2, dose 0.025 ppm",45%
same,Emax at 0.05 ppm,"[1]; Alternaria brassicae, 336 h, Example 2, dose 0.05 ppm",44%
same,Emax at 0.1 ppm,"[1]; Alternaria brassicae, 336 h, Example 2, dose 0.1 ppm",45%
same,Emax at 0.25 ppm,"[1]; Alternaria brassicae, 336 h, Example 2, dose 0.25 ppm",53%
same,Emax at 0.5 ppm,"[1]; Alternaria brassicae, 336 h, Example 2, dose 0.5 ppm",60%
same,Emax at 1 ppm,"[1]; Alternaria brassicae, 336 h, Example 2, dose 1 ppm",65%
same,Emax at 2.5 ppm,"[1]; Alternaria brassicae, 336 h, Example 2, dose 2.5 ppm",71%
same,Emax at 4 g/ha,"[6]; Example 1, dose 4 g/ha",50%
same,Emax at 8 g/ha,"[6]; Example 1, dose 8 g/ha",70%

# Reference: patent US9445590B2, “Fungicidal composition comprising a pyridylethylbenzamide derivative and a compound capable of inhibiting the transport of electrons of the respiratory chain in phytopathogenic fungal organisms” (BAYER INTELLECTUAL PROPERTY GMBH, priority 2004, dated 2016)
